According to publication PMC9794833, “Ligand recognition and activation of neuromedin U receptor 2” (Nature Communications, 2022):
Values joined by “and” are separate entries in the source; they are usually repeats but may differ in a detail not shown here. Equal entries are not always repeated. Where a SMILES comes first, the peptide text is derived from it. [ ]: non-standard residue; d: D form. The star is where a group is joined. αMeW = C[C@](N)(Cc1c[nH]c2ccccc12)C(=O)O; Acetyl(2-thienyl) = O=C(Cc1cccs1)*

What was measured:
NMU2 = target: T1, NMU2 (Homo sapiens, UniProt Q9GZQ4); test: TRUPATH Gαi1βγ biosensor assay, WT NMU2; format: cell-based; settings: WT; for CPN 267–induced G protein activation of NMU2: single replicates
T1 construct: HA signal peptide (N); expressed in transfected cells; host or cells: HEK 293F
T1 sequence (Q9GZQ4 whole entry): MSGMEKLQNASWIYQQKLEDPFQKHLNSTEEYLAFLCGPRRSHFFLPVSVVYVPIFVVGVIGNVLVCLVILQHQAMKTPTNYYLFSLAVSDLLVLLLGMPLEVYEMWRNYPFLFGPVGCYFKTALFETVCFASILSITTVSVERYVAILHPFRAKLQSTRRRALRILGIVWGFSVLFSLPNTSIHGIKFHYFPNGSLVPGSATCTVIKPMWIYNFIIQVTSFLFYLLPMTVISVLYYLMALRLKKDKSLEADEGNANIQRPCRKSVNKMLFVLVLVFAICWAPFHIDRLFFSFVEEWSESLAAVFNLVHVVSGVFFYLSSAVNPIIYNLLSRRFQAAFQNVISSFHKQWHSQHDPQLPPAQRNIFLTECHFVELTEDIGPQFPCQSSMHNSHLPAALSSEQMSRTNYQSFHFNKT
Description: (§1) The plasmids of Gαi1, Gβ3, and Gγ9 used for the TRUPATH assay were purchased from Addgene (TRUPATH Kit, #1000000163). NMU2 constructs of WT and mutants were constructed into a PTT5 vector (Invitrogen) with an N-terminal HA signal peptide followed by a Flag tag. HEK 293F cells were transiently transfected with WT or mutants of NMU2, Gαi1, Gβ3, and Gγ9 at an […] ratio of 4:1:1:1 with a total of 3500 ng plasmid DNA using a transfection reagent (PEI MAX 2000, Polysciences) and cultivated at 37 °C with 5 % CO2. Cells were collected after 48-h transfection. The expression level of the receptor was measured by incubating 10 μl cells with 15 μl TBS buffer supplemented with 4% bovine serum albumin, 20% (v/v) viability staining solution7-AAD (Invitrogen, Cat#00-6993-50), and ANTI-FLAG M2-FITC antibody (Sigma, F4049; 1:100 diluted by TBS) at 4 °C for 20 min. After incubation, 175 μl TBS buffer was added, and the fluorescence signal on the cell surface was detected by an FCM (flow cytometry) reader (Millipore). The cells were diluted with 1× HBSS (Hank’s balanced salt solution) balanced buffer supplemented with 25 mM HEPES, pH 7.4, and seeded onto the 96-well opaque cell culture plates (Beyotime) at a density of 18,000 cells per well by 60 μl. Freshly prepared 50 μM coelenterazine 400a (Nanolight Technologies) was added into the well by 10 μl. After a 5 min equilibration time in the darkness, plates were then read in a Synerg^TM H1 microplate reader (BioTek) with excitation at 395 nm and emission at 410 and 515 nm by serially three times. Then, 30 μl of 3.3× agonists were added into the wells with a gradient final concentration from 10^−4–10^−13 M. Plates were read immediately again by serially five times. Data were processed and analyzed following the method in the literature by using GraphPad Prism 8.0.

NMU2 A302H = target: T2, NMU2 A302H (Homo sapiens, UniProt Q9GZQ4, A302H); test: TRUPATH assay, NMU2 mutant A302H; format: cell-based; settings: Log [CPN 267] M -13
T2 construct: HA signal peptide (N); expressed in transfected cells; host or cells: HEK 293F
T2 sequence (Q9GZQ4 whole entry A302H): as the sequence (Q9GZQ4 whole entry) above, with A302H counted along it
Description: as §1

NMU1 = system: NMU1; set-up: method as in PMID 24999562, PMID 25815150, PMID 28548497; settings: cited from earlier work
NMU2 N306Q = target: T3, NMU2 N306Q (Homo sapiens, UniProt Q9GZQ4, N306Q); test: TRUPATH assay, NMU2 mutant N306Q; format: cell-based
T3 construct: HA signal peptide (N); expressed in transfected cells; host or cells: HEK 293F
T3 sequence (Q9GZQ4 whole entry N306Q): as the sequence (Q9GZQ4 whole entry) above, with N306Q counted along it
Description: as §1

NMU2 H43E = target: T4, NMU2 H43E (Homo sapiens, UniProt Q9GZQ4, H43E); test: TRUPATH assay, NMU2 mutant H43E; format: cell-based; settings: for increase of Emax: H43E vs WT, TRUPATH; for CPN 267–induced G protein activation of NMU2: single replicates
T4 construct: HA signal peptide (N); expressed in transfected cells; host or cells: HEK 293F
T4 sequence (Q9GZQ4 whole entry H43E): as the sequence (Q9GZQ4 whole entry) above, with H43E counted along it
Description: as §1

With `C[C@@](Cc1c[nH]c2ccccc12)(NC(=O)[C@H](Cc1c[nH]c2ccccc12)NC(=O)Cc1cccs1)C(=O)N[C@@H](CCCNC(=N)N)C(=O)N1CCC[C@H]1C(=O)N[C@@H](CCCNC(=N)N)C(=O)N[C@@H](CC(N)=O)C(N)=O` [CPN 267] ({Acetyl(2-thienyl)}-W[αMeW]RPRN-NH2; N-terminus assumed) the “EC50 ratio EC50(mutant)/EC50(WT)” value (NMU2) was 1, the “CPN 267–induced G protein activation of NMU2” value (NMU2; Log [CPN 267] M -5) was -0.03587 and 0.007188 and -0.01399 and -0.02335 and the “CPN 267–induced G protein activation of NMU2” value (NMU2; Log [CPN 267] M -6) was -0.02292 and -0.01831 and -0.0188 and -0.02168 and -0.03547 and -0.01761 and -0.003911 and -0.0252 and -0.02032. For the same compound, the “CPN 267–induced G protein activation of NMU2” value (NMU2; Log [CPN 267] M -7) was -0.006001 and -0.01343 and -0.0256 and -0.004694 and 0.01387 and -0.02539 and 0.01253 and -0.01403 and -0.001793, the “CPN 267–induced G protein activation of NMU2” value (NMU2; Log [CPN 267] M -8) was 0.003495 and -0.002501 and 0.007246 and 0.0002105 and -0.01007 and 0.01037 and -0.008456 and 0.001798 and the “CPN 267–induced G protein activation of NMU2” value (NMU2; Log [CPN 267] M -9) was -0.002278 and 0.02355 and -0.003166 and -0.00428 and 0.01286 and -0.01712 and 0.00907 and -0.02718 and 0.02569. The “CPN 267–induced G protein activation of NMU2” value (NMU2; Log [CPN 267] M -10) was 0.01327 and -0.00722 and 0.003132 and -0.01489 and -0.004805 and 0.01086 and 0.01655 and -0.01176, the “CPN 267–induced G protein activation of NMU2” value (NMU2; Log [CPN 267] M -11) was 0.01288 and -0.01868 and -0.005647 and 0.02201 and -0.02258 and -0.03283 and 0 (3×) and the “CPN 267–induced G protein activation of NMU2” value (NMU2; Log [CPN 267] M -12) was 0.001564 and -0.001695 and 0.03559 and -0.01351 and 0.02492 and 0. For the same compound, the “CPN 267 dose-response point on NMU2 (TRUPATH, raw signal)” value (shortened to “CPN 267 dose-response point on NMU2”) (NMU2; Log [CPN 267] M -13) was 0, the “CPN 267–induced G protein activation of NMU2” value (NMU2; Log [CPN 267] M -13) was 0 and the “CPN 267 dose-response point on NMU2” value (NMU2 A302H) was 0. The “selectivity over NMU2” value (NMU1; NMU1 over NMU2) was 1000 fold, the EC50 (NMU1; agonistic activity for NMU1) was 0.25 nM and the “EC50 ratio EC50(mutant)/EC50(WT)” value (NMU2 N306Q) was 0.12. The “CPN 267–induced G protein activation of NMU2” value (NMU2 N306Q; Log [CPN 267] M -4, single replicates) was -0.07238 and -0.04006 and -0.03184, the “CPN 267–induced G protein activation of NMU2” value (NMU2 N306Q; Log [CPN 267] M -5, single replicates) was -0.01962 and -0.06076 and -0.0468 and -0.06887 and the “CPN 267–induced G protein activation of NMU2” value (NMU2 N306Q; Log [CPN 267] M -6, single replicates) was -0.04834 and -0.04745. The “CPN 267 dose-response point on NMU2” value (NMU2 N306Q; Log [CPN 267] M -13) was 0, the “enhanced potency compared to the WT receptor” value (NMU2 N306Q; TRUPATH) was “about 8 fold” and the “EC50 ratio EC50(mutant)/EC50(WT)” value (NMU2 H43E; H43E) was 2. For the same compound, the “increase of Emax” value (NMU2 H43E) was “twofold”, the “increase of Emax” value (NMU2 H43E; listed as CPN267) was 2 fold and the “CPN 267 dose-response point on NMU2” value (NMU2 H43E; H43E, Log [CPN 267] M -4) was -0.04819. For the same compound, the “CPN 267–induced G protein activation of NMU2” value (NMU2 H43E; H43E, Log [CPN 267] M -4) was -0.04819, the “CPN 267–induced G protein activation of NMU2” value (NMU2 H43E; H43E, Log [CPN 267] M -5) was -0.05461 and -0.04902 and the “CPN 267–induced G protein activation of NMU2” value (NMU2 H43E; H43E, Log [CPN 267] M -6) was -0.04442 and -0.04638 and -0.03015. For the same compound, the “CPN 267–induced G protein activation of NMU2” value (NMU2 H43E; H43E, Log [CPN 267] M -7) was -0.01102 and -0.01529 and -0.01284, the “CPN 267–induced G protein activation of NMU2” value (NMU2 H43E; H43E, Log [CPN 267] M -8) was 0.004556 and -0.024 and -0.02479 and the “CPN 267–induced G protein activation of NMU2” value (NMU2 H43E; H43E, Log [CPN 267] M -9) was 0.01023 and -0.003075 and 0.003569. For the same compound, the “CPN 267–induced G protein activation of NMU2” value (NMU2 H43E; H43E, Log [CPN 267] M -10) was 0.0005609 and -0.01099 and -0.03027, the “CPN 267–induced G protein activation of NMU2” value (NMU2 H43E; H43E, Log [CPN 267] M -11) was 0.0192 and 0.004402 and 0 and the “CPN 267–induced G protein activation of NMU2” value (NMU2 H43E; H43E, Log [CPN 267] M -12) was 0.009217 and 0. For the same compound, the “CPN 267 dose-response point on NMU2” value (NMU2 H43E; H43E, Log [CPN 267] M -13) was 0 and the “CPN 267–induced G protein activation of NMU2” value (NMU2 H43E; H43E, Log [CPN 267] M -13) was 0.
